A short description of data set [1]: Octanol–water partition coefficient, shake-flask method (OECD Test No. 107). The format is physicochemical. To be noted: shake-flask, 25 °C, 24 h, average of six results; read-out: Octanol-water partition coefficient (log Kow). The method, then:
The octanol–water partition coefficients (KOW) of the synthesized products were estimated by the shake-flask method according to the OECD Test No. 107 guidelines (Partition Coefficient n-Octanol/Water: Shake-Flask Method). Measurements were performed using mutually saturated distilled water and 1-octanol in a glass vial containing a magnetic stir bar. First, the synthesized products were dissolved in distilled water (or 1-octanol) at a chosen concentration (0.01 mol per 1 L of octanol or water), and then proper amounts of the second solvent (octanol or water) were added. Subsequently, two duplicate runs were carried out with different solvent ratios: 4 mL of 1-octanol and 2 mL of water (2:1), 4 mL of 1-octanol and 4 mL of water (1:1), and 4 mL of 1-octanol and 8 mL of water ([…]). All vials were shaken at a constant temperature of 25 °C. After 24 h, all samples were centrifuged and the aqueous and octanolic phases were collected with a syringe. The concentrations of compounds in water were determined spectrophotometrically using a Rayleigh UV-1601 spectrophotometer (Beijing Beifen-Ruili Analytical, China) based on calibration curves made previously (at λmax = 262 nm) vs concentration for each substance. Two repetitions of each measurement were performed in a specific solvent ratio (1:1, 1:2, and 2:1). Finally, the log KOW was calculated as the average of six results collected for each compound.
The outermost layer of the skin (stratum corneum) contains around […] water, a relatively low amount compared to the rest of the human body. Given the hydrophobic nature of 1-octanol, it can be used as a simplified model for the stratum corneum.[50] The octanol–water partition coefficient (KOW) value represents the proportion between the concentrations of a substance in both liquid phases of a system composed of water and 1-octanol. […] The log KOW values are given in Figure 6 (exact values are provided in Table S4, Supporting Information).

A further data set is described as follows: Solubility in PBS. To be noted: Pharmacopeia solubility class, PBS pH 7.4, 25 °C. The method, then:
The solubility in PBS solution was determined by placing 1 g (±0.0001) of tested compound in a round-bottom flask and adding specific parts of the PBS solution in portions until full dissolution. The samples were vigorously stirred for at least 5 min before the addition of the next portion of PBS, and the systems were thermostated at 25 °C. Three repetitions of the measurement were performed for each of the compounds.
Most studies on the solubility of novel APIs are carried out with pure water, aqueous PBS solutions were much more preferred due to their higher similarity to intra- and intercellular media in epidermis, while envisaging their use in transdermal delivery and skin care applications.[60] […] The collected data are presented in Figure 8 (as well as in Table S6 in the Supporting Information).

The test system of the next data set is Cutibacterium acnes. Description: MIC and MBC determination, microdilution method. The format is cell-based. To be noted: Cutibacterium acnes. The method, then:
(§1) The antimicrobial activities of the compounds were tested against clinical strains of an aerobic Gram-negative bacterium—Pseudomonas aeruginosa (P. aeruginosa), facultative anaerobic Gram-positive bacteria—Staphylococcus aureus (S. aureus) and Staphylococcus epidermidis (S. epidermidis), anaerobic Gram-positive bacterium—Cutibacterium acnes (C. acnes), and yeast-like fungus—Candida albicans (C. albicans).
(§2) Aerobic and facultative anaerobic bacteria cultures were grown in Brain Heart Infusion broth (BHI, bioMerieux, France) at 35 °C ± 1 °C for 18 h, C. acnes cultures were grown in thioglycolate broth with resazurin (TGB, bioMerieux, France) at 35 ± 1 °C for 48 h, and yeast cultures were grown in Sabouraud dextrose broth (SDB, Merck, Germany) at 35 ± 1 °C for 24 h. After incubation, each culture was diluted in a suitable liquid medium: P. aeruginosa, S. aureus, and S. epidermidis—Mueller–Hinton broth (MHB; Oxoid, UK); C. acnes—TGB; and C. albicans—SDB, to obtain a final suspension containing about 10^6 CFU/mL.
(§3) The microdilution method was employed to determine the compounds’ MIC (Minimal Inhibitory Concentration) and MBC/MFC (Minimal Bactericidal Concentration/Minimal Fungicidal Concentration) against the tested bacterial and fungal strains.
(§4) The compounds were serially diluted (2-fold) in the respective media (P. aeruginosa, S. aureus, and S. epidermidis—MHB, C. acnes—TGB, and C. albicans—SDB in 96-well plates), and the microbial suspensions were added. The compounds were tested in the final concentration range of 4 096 to 0.125 μg/mL, and the final microbial inoculum was approximately 5 ×10^5 CFU/mL. The tests were incubated at 35 °C ± 1 °C for 18 h (P. aeruginosa, S. aureus, and S. epidermidis) or 24 h (C. albicans) or 48 h (C. acnes). C. acnes was incubated in an anaerobic atmosphere using a GENbag anaer (bioMerieux, France). Media (without the strains) added to the different concentrations of tested compounds and media inoculated with microbial suspension were used as a negative control and growth control, respectively.
(§5) The MIC was defined as the lowest concentration at which visible growth was inhibited. MBC and MFC concentrations were determined as an extension of the MIC test. […] The plates were incubated at 35 ± 1 °C for 18–72 h. C. acnes was incubated in an anaerobic atmosphere. The MBC/MFC was defined as the lowest concentration at which no growth was observed. All tests were performed in duplicate.
A general note: Dilution methods test growth across graded concentrations, often in twofold steps.

Another data set has as its system Pseudomonas aeruginosa. Description: MIC and MBC determination, microdilution method. The format is cell-based. The method, then: as §1, §2, §3, §4, §5
Another data set relates to Staphylococcus aureus. The data set can be described thus: MIC and MBC determination, microdilution method. The format is cell-based. The method, then:
as §1, §2, §3, §4, §5

The test system of data set [2] is Staphylococcus epidermidis. Description: MIC and MBC determination, microdilution method. The format is cell-based. The method, then: as §1, §2, §3, §4, §5
In another data set the test system is Candida albicans. Description: MIC and MFC determination, microdilution method. The format is cell-based. The method, then:
as §1, §2, §3, §4, §5

In data set [3] the test system is cyclooxygenase-2 (PDB ID: 1CX2). The data set can be described thus: Molecular docking (AutoDock4). To be noted: from docking IC50 values.
Experimental: Docking studies were performed using the AutoDock4 program in AutoDockTools 1.5.7.[28] The structures for ligands (reference substances and N-alkylnicotinamide cations) were optimized for energy minimization using the MMFF94 force field in Avogadro 1.2.0 with the steepest descent algorithm and subsequently converted to a PDBQT format using OpenBabelGUI. The three-dimensional structure of target cyclooxygenase-2 (Protein Data Bank ID: 1CX2) was retrieved from Protein Data Bank (http://www.pdb.org) with a resolution of 3.00 Å. The protein molecule 1CX2 was prepared using AutoDockTools version 1.5.7. The preparation process involved checking for missing atoms, repairing any missing atoms, adding polar hydrogens and Kollman charges, and distributing charges over all of the atoms on residues. All cocrystallized compounds present in the 1CX2 structure (including water molecules and the ligand) were removed prior to the calculations. […] The interaction between the ligand and receptor and hydrogen bond lengths were analyzed using AutoDockTools and PLIP (Protein Ligand Interaction Profiler) developed by Biotechnology Center TU Dresden (BIOTEC).
In the next data set the test system is Artemia franciscana. Description: Ecotoxicity toward aquatic life, Artoxkit M immobilization test. The format is in vivo. To be noted: for EC50: Artemia franciscana. The method, then: To determine the EC50 parameter for compounds, tests were carried out on marine crustaceans—Artemia franciscana (A. franciscana). The methodology proposed in the Artoxkit M test (MicroBioTests Inc., Gent, Belgium) was developed according to the ASTM E1440-91 standard.
The hatching process was started first. For this purpose, 50 mg of cysts was transferred to the Petri dishes attached to the Artoxkit M set, which were then immersed in 10 mL of artificial seawater with a salinity of 35‰ (a medium for the development of the tested organisms, as well as a solvent for preparing solutions of the tested compounds) and placed at a temperature of 25 °C, with access to light (6000–10,000 lux) for 30 h. Then, 2 h before placing them on the Artoxkit M plates, 20 mg of spirulina was added to cultured artemias. In addition, 1 h before the analysis, the used seawater was oxygenated by passing a stream of air through the solution. To each of the four cells in a given row of a plate from the Artoxkit M kit, 1 mL of solution at the specified concentrations (or the appropriate medium in the case of a control) were introduced. In the first column of cells (a control sample and five selected concentrations), no less than 30 artemias were placed from previously prepared Petri dishes. Then, from the first cell in the first column, artemias were collected at the selected concentration and added to the next three cells in the selected row, 10 organisms per cell. After the organisms were introduced into the appropriate cells, the plates were covered with Parafilm and then closed with a plastic cap. The prepared kit was incubated at 25 °C and protected from light. Number of motionless organisms were counted after 24 and 48 h. Immobilization was then calculated (eq 1) in relation to the number of organisms at the start of the test: [drawing 1] 1
Next, the dependence between the effect and concentration of the tested compounds was plotted, and on this basis, an EC50 value was determined.

These results are taken from publication PMC11372839, “Unraveling the Potential of Vitamin B3-Derived Salts with a Salicylate Anion as Dermal Active Agents for Acne Treatment” (Molecular Pharmaceutics, 2024).

Molecules are shown by their SMILES. Like-named read-outs stand apart in the source and are kept apart here.

Usually MIC stands for the lowest concentration that inhibits growth of the organism. By MBC is commonly meant the lowest tested concentration that kills the bacteria rather than only halting them. In general, MFC refers to the lowest tested concentration that kills the fungus rather than only halting it. Take `CCCCCCCCCCCC[n+]1cccc(C(N)=O)c1.O=C([O-])c1ccccc1O` [compound 6]: the logP at 24 h in [1] came to 0.6. Also, the “Solubility in PBS, Class” value in “Solubility in PBS” is on record as “Very Slightly Soluble (1000-10 000)”. The MIC in the data set on Cutibacterium acnes (48 h, read-out: MIC, C. acnes) was determined as 64 µg/mL; in the data set with Pseudomonas aeruginosa (18 h, read-out: MIC, P. aeruginosa), 256 µg/mL; in the data set with Staphylococcus aureus (18 h, read-out: MIC, S. aureus), 8 µg/mL; in [2] (18 h, read-out: MIC, S. epidermidis), 256 µg/mL; in the data set with Candida albicans (24 h, read-out: MIC, C. albicans) it was 256 µg/mL. Moreover, the MBC with Cutibacterium acnes (read-out: MBC, C. acnes) amounted to 64 µg/mL; in the data set on Pseudomonas aeruginosa (read-out: MBC, P. aeruginosa), 256 µg/mL; in the data set on Staphylococcus aureus (read-out: MBC, S. aureus), 8 µg/mL; in [2] (read-out: MBC, S. epidermidis), 256 µg/mL. Moreover, the MFC in the data set on Candida albicans (read-out: MFC, C. albicans) worked out at 256 µg/mL. Moreover, the “times more potent than NA itself” value in [3] is 125 times. In addition, the EC50 was 89.7 µg/mL with Artemia franciscana (immobilization, motionless organisms counted after 24 and 48 h, 25 °C, read-out: EC50); 10 to 100 µg/mL in the data set with Artemia franciscana (toxicity range of EC50, read-out: Range). The Class result with Artemia franciscana (acute toxicity rating scale by Fish and Wildlife Service) is on record as “Slightly Toxic (10-100)”.
